Source: patent publication US20250064805A1, “Methods of Treating Myeloproliferative Disorders Based on BTK Occupancy & Resynthesis Rate” (Telios Pharma Inc., priority 2022, published 2025)

Legend:
[1] = biological target: T1, BTK (Homo sapiens, UniProt Q06187); test: BTK resynthesis rate in cells after saturating exposure to and washout of Compound 128 (free BTK by ELISA); format: cell-based
T1 construct: endogenous in cells; host or cells: RAMOS B cells, HEL-92, MV-411, MOLM-13, THP-1, UKE-1, primary myeloid cells/monocytes from a healthy donor, primary cells from AML patients
T1 sequence (Q06187 whole entry): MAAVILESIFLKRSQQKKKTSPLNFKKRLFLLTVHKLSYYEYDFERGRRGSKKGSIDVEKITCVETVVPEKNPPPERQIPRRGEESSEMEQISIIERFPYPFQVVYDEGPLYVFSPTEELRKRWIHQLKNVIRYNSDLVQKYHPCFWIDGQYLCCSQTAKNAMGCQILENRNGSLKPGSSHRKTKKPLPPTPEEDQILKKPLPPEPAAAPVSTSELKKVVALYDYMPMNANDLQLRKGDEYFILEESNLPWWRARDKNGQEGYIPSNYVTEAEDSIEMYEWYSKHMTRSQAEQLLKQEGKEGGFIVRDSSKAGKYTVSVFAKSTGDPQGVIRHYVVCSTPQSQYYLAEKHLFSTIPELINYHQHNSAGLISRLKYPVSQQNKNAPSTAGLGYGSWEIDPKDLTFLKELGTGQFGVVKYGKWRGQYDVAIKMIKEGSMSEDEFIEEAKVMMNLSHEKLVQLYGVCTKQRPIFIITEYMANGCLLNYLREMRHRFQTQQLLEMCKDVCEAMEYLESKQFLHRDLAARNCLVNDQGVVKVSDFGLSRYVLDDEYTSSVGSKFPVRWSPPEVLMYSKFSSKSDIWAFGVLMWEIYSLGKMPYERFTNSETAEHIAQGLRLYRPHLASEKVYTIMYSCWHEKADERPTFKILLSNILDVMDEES
Description: Various cell types and tissues show different rates of BTK synthesis (see FIG. 1). Cells were cultured with a saturating concentration of Compound 128 to occupy all BTK protein (0% free BTK). This was followed by a washout of Compound 128 and culturing for up to 48 hours with no BTK inhibitor to allow the cells to synthesize new BTK protein. The rate of BTK protein synthesis was determined by measuring the free BTK by ELISA at different time points. RAMOS B cells resynthesized BTK at a rate of only 26% per day, while Hel-92 and MV-411 cells resynthesized BTK at a rate of over 100% per day. […] The rate of BTK resynthesis in naïve AML patients was roughly 30% per day, with low inter-patient variability.
BTK resynthesis in each cell type was measured as described in Example 1. The left graph (see FIG. 2) depicts the BTK resynthesis rate in monocytes from a normal individual following a two hour exposure to Compound 128. The BTK resynthesis rate was determined to be 61% per day in normal monocytes. The right graph (see FIG. 2) depicts the BTK resynthesis rate in the presence of BTK inhibitor Compound 128 in two different cell lines.
BTK resynthesis was measured in additional AML and MF cell types as described in Example 1 following a one hour exposure to Compound 128 (see FIG. 3). MOLM-13 cells resynthesized BTK at a rate of only 21% per day, while THP-1 cells resynthesized BTK at a rate of 84% per day and UKE-1 cells resynthesized BTK at a rate of over 100% per day.

[2] = Half-life of Compound 128 in vivo
Description: In myeloproliferative disorders, the de novo resynthesis rate of BTK following covalent inhibition by Compound 128 is greater than the de novo BTK resynthesis rate in B-cell malignancies. […] The short half-life of Compound 128 (1 to 2 hours in vivo), coupled with the faster BTK turnover in myelofibrosis in particular, and myeloproliferative disorders in general, requires higher BID dosing. Thus, a 300 mg BID dose in subjects with myelofibrosis should ensure maximal BTK occupancy at trough levels of this drug.

With `C=CC(=O)N1CCC(F)(CNc2ncnc(N)c2-c2ccc(Oc3ccccc3)cc2)CC1` [Compound 128, 1-(4-(((6-amino-5-(4-phenoxyphenyl)pyrimidin-4-yl)amino)methyl)-4-fluoropiperidin-1-yl)prop-2-en-1-one] the “initial BTK resynthesis rate” value ([1]; HEL-92 (myelofibrosis) cells) was 43 % per day, the “BTK resynthesis rate after repeated exposure” value ([1]; HEL-92 (myelofibrosis) cells, repeated exposure) was 28 % per day and the “change of BTK resynthesis rate after treatment” value ([1]; Hel-92 cells, after 4 days of treatment) was “decreased BTK resynthesis rate”. For the same compound, the BTK resynthesis rate ([1]; Hel-92 cells, saturating concentration, washout, culture up to 48 hours) was “over 100 % per day”, the BTK resynthesis rate ([1]; MOLM-13 cells, one hour exposure) was 21 % per day and the “BTK resynthesis rate after continued exposure” value ([1]; MV-411 cells (AML), continued exposure for seven days) was 44 % per day. The “initial BTK resynthesis rate” value ([1]; MV-411 cells (AML)) was 83 % per day, the “change of BTK resynthesis rate after treatment” value ([1]; MV-411 cells, after 7 days of treatment) was “decreased BTK resynthesis rate” and the BTK resynthesis rate ([1]; MV-411 cells, saturating concentration, washout, culture up to 48 hours) was “over 100 % per day”. For the same compound, the BTK resynthesis rate ([1]; RAMOS B cells, saturating concentration, washout, culture up to 48 hours) was 26 % per day, the BTK resynthesis rate ([1]; THP-1 cells, one hour exposure) was 84 % per day and the BTK resynthesis rate ([1]; UKE-1 cells, one hour exposure) was “over 100 % per day”. The BTK resynthesis rate ([1]; culture of primary myeloid cells from a healthy donor) was 67 % per day, the BTK resynthesis rate ([1]; cultures of primary cells from patients with relapsed AML) was 57 % per day and the “de novo BTK resynthesis rate, HEL-92 cells compared to Ramos B-lymphoblastoid cell line” value ([1]; following covalent inhibition by Compound 128) was “four-fold higher”. For the same compound, the BTK resynthesis rate ([1]; monocytes from a normal individual, two hour exposure) was 61 % per day, the BTK resynthesis rate ([1]; naïve AML patients) was “roughly 30 % per day” and the half-life [2] was 1 to 2 h.
